One assay has as its target T1, TNAP (Homo sapiens, UniProt P05186).
T1 sequence (P05186 18-502 limits assumed): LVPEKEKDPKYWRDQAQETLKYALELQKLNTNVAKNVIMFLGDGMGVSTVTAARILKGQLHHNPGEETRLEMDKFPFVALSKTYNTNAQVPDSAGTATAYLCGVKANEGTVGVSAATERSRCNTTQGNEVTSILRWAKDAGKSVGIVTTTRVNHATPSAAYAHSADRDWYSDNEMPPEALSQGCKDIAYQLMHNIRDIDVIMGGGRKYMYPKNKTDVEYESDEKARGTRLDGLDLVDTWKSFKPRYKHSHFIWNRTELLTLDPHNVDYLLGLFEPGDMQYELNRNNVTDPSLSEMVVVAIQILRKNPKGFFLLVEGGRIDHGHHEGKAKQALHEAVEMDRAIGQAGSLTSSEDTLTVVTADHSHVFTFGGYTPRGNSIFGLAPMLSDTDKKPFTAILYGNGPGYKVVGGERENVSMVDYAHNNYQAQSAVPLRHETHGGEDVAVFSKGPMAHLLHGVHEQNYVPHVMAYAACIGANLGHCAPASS
Description: TNAP inhibitory activity, colorimetric assay (alkaline phosphatase assay kit ab83369, pNPP substrate). The class given is biochemical. The settings on record: TNAP enzyme, 2 hours at room temperature, absorbance 405 nm. The method, then: The TNAP inhibitory activity of the compounds according to the present invention was analyzed by colorimetric assay.
The experiments were performed according to the protocol of the alkaline phosphatase assay kit ab83369.
TNAP enzyme at a concentration of 0.2 ng/µl was dispensed into a 96-well plate (Costar) (10 µl/well), to which the 10-fold diluted test substance was added (15 µl/well). The plate was incubated at room temperature, shielded from light, for 10 minutes to allow the enzyme and compound to act. After incubation, 125 µl of 1 mM substrate (pNPP) was added to each well of the plate, and the plate was incubated for 2 hours at room temperature in a darkened state to allow the enzyme, substrate, and test compound to act. Absorbance was measured at 405 nm using a microplate reader (Tecan spark), and IC50 was calculated using GraphPad Prism 9. The amount of p-nitrophenol produced was calculated through the absorbance, and the degree of TNAP activity inhibition was evaluated through the degree of inhibition of p-nitrophenol production, and the concentration of the compound that inhibited 50% was calculated as the IC50 value.

For a further assay, the system named is saos-2 cells. Description: Anticalcification efficacy in saos-2 cells (osteogenic medium, Alizarin Red staining). The class given is cell-based. The settings on record: test compound 1 µM, 7 days osteogenic medium, Alizarin Red absorbance 540 nm; for inhibition at 1 µM: Homo sapiens, 168 h, read-out: calcification inhibition. The method, then:
To confirm the inhibitory effect of calcification in saos-2 cells in which calcification is induced by overexpression of TNAP, saos-2 cells were cultured in a culture medium in an incubator at 37°C, 95% humidity, and 5% CO2. RPMI-1640 (Corning) supplemented with 10% FBS (Gibco) and 1% Pen/Strep (Gibco) was used as the culture medium.
Saos-2 cells were seeded in a 48-well plate at the density of 1.5 x 10^4 cells/well and used in the experiment when they reached 80-90% confluence after stabilization for 2 days.
After saos-2 cells were cultured in a 48-well plate to 80-90% confluence, the culture medium was removed and replaced with an osteogenic medium (OM). DMEM (Gibco) containing 10% FBS, 1% Pen/Strep, 100 nM dexamethasone (Sigma), 10 mM β-glycerophosphate (Sigma), and 0.05 mM L-ascorbic acid (Sigma) was used as the OM. Osteogenic differentiation of saos-2 cells by OM was induced for 7 days, and OM was replaced every 2 to 3 days.
When inducing calcification through OM in saos-2 cells, the cells were treated with concentrations of […] of the TNAP inhibitor test compounds with the OM replacement cycle, except for the control group (OM).
After 7 days of OM induction, the medium was removed from each well and the plate was washed twice with PBS. Cells were fixed with 4% paraformaldehyde for 1 hour, then the fixative was removed and washed twice with deionized water (DW). ARS solution was added to the plate and shaken for 1 hour to stain the cells. When the cells were sufficiently stained red, the dye was removed, the cells were washed carefully with DW, dried, and then photographs were taken of the stained cells. The red-stained area represents calcification induced by OM, and the degree of calcification was determined based on the degree of redness. To quantify this, 10% cetylpyridinium chloride was dispensed into the wells and the dye was dissolved. The dye-dissolved solution was transferred to each well of a 96 well plate and absorbance was measured at 540 nm.
The degree of decrease in the measured absorbance by the test compounds based on the absorbance for OM was evaluated as the degree of inhibition of calcification.

By IC50 is commonly meant the concentration needed to halve the response being measured. A higher IC50 goes with weaker potency. For “2-methoxy-N-(5-oxo-5,6,7,8-tetrahydro-1,6-naphthyridine-3-yl)benzenesulfonamide [Example 26]”, at TNAP, the IC50 lay within 10 to 100 nM. For the same compound, in the assay on saos-2 cells, the calcification inhibition result is recorded as “A (inhibition of 50% or more was expressed as "A")”.
The compound “4'-(aminomethyl)-4-fluoro-N-(5-oxo-5,6,7,8-tetrahydro-1,6-naphthyridine-3-yl)-[1,1'-biphenyl]-2-sulfonamide hydrochloride [Example 39]” registered an IC50 against TNAP of 10 to 100 nM. Also, in the assay with saos-2 cells, the calcification inhibition result is recorded as “A (inhibition of 50% or more was expressed as "A")”.
Broadly, the inhibition is the relative decrease from the control value, in per cent. Take `COc1ccc(Br)cc1S(=O)(=O)Nc1cnc2c(c1)C(=O)NC2` [Example 2, 5-bromo-2-methoxy-N-(5-oxo-6,7-dihydro-5H-pyrrolo[3,4-b]pyridine-3-yl)benzenesulfonamide]: the IC50 at TNAP fell in the range of 10 to 100 nM. In the assay with saos-2 cells, the inhibition at 1 µM was at least 50%.
On to `COc1ccc(OC)c(S(=O)(=O)Nc2cnc3c(c2)C(=O)NC3)c1` [Example 3, 2,5-dimethoxy-N-(5-oxo-6,7-dihydro-5H-pyrrolo[3,4-b]pyridine-3-yl)benzenesulfonamide], for which, on TNAP, the IC50 fell in the range of 10 to 100 nM. Besides, the inhibition at 1 µM in the assay with saos-2 cells is at least 50%.
The compound `COc1ccc(F)cc1S(=O)(=O)Nc1cnc2c(c1)C(=O)NC2` [Example 4, 5-fluoro-2-methoxy-N-(5-oxo-6,7-dihydro-5H-pyrrolo[3,4-b]pyridine-3-yl)benzenesulfonamide] showed an IC50 at TNAP of 10 to 100 nM. Besides, in the assay with saos-2 cells, the inhibition at 1 µM is at least 50%.
The like results for `O=C1NCc2ncc(NS(=O)(=O)c3cc(Br)cc4c3OCC4)cc21` [Example 5, 5-bromo-N-(5-oxo-6,7-dihydro-5H-pyrrolo[3,4-b]pyridine-3-yl)-2,3-dihydrobenzofuran-7-sulfonamide] were, in that order, 100 to 1000 nM and 0 to 50%.
Take `COc1ccc(OC)c(S(=O)(=O)Nc2cnc3c(c2)C(=O)NCC3)c1` [Example 7, 2,5-dimethoxy-N-(5-oxo-5,6,7,8-tetrahydro-1,6-naphthyridine-3-yl)benzenesulfonamide]: on TNAP, the IC50 was at most 10 nM. Further, in the assay with saos-2 cells, the inhibition at 1 µM was at least 50%.
`COc1ccc(F)cc1S(=O)(=O)Nc1cnc2c(c1)C(=O)NCC2` [Example 8, 5-fluoro-2-methoxy-N-(5-oxo-5,6,7,8-tetrahydro-1,6-naphthyridine-3-yl)benzenesulfonamide] showed an IC50 against TNAP of 10 to 100 nM. Besides, the inhibition at 1 µM in the assay with saos-2 cells was at least 50%.
For the compound `COc1ccc(Br)cc1S(=O)(=O)Nc1cnc2c(c1)C(=O)NCC2` [Example 9, 5-bromo-2-methoxy-N-(5-oxo-5,6,7,8-tetrahydro-1,6-naphthyridine-3-yl)benzenesulfonamide], at TNAP, the IC50 is at most 10 nM. The inhibition at 1 µM with saos-2 cells was at least 50%.
As to `O=C1NCCc2ncc(NS(=O)(=O)c3cc(Br)cc4c3OCC4)cc21` [Example 10, 5-bromo-N-(5-oxo-5,6,7,8-tetrahydro-1,6-naphthyridine-3-yl)-2,3-dihydrobenzofuran-7-sulfonamide], the IC50 on TNAP is 100 to 1000 nM. For the same compound, the inhibition at 1 µM in the assay on saos-2 cells was at least 50%.
The like results for `O=C1NCc2ncc(NS(=O)(=O)c3cc(F)ccc3Br)cc21` [Example 11, 2-bromo-5-fluoro-N-(5-oxo-6,7-dihydro-5H-pyrrolo[3,4-b]pyridine-3-yl)benzenesulfonamide] were, in that order, at least 1000 nM and at least 50%.
Take `O=C1NCc2ncc(NS(=O)(=O)c3c(F)cc(F)cc3Br)cc21` [Example 12, 2-bromo-4,6-difluoro-N-(5-oxo-6,7-dihydro-5H-pyrrolo[3,4-b]pyridine-3-yl)benzenesulfonamide]: the IC50 at TNAP is at least 1000 nM. Moreover, the inhibition at 1 µM in the assay with saos-2 cells is below 0%.
As for `COc1ccc(Cl)cc1S(=O)(=O)Nc1cnc2c(c1)C(=O)NCCC2` [Example 13, 5-chloro-2-methoxy-N-(5-oxo-6,7,8,9-tetrahydro-5H-pyrido[3,2-c]azepine-3-yl)benzenesulfonamide], the IC50 at TNAP lay in the range of 100 to 1000 nM. Moreover, the inhibition at 1 µM in the assay with saos-2 cells is at least 50%.
In turn, `COc1ccc(Br)cc1S(=O)(=O)Nc1cnc2c(c1)C(=O)NCCC2` [Example 14, 5-bromo-2-methoxy-N-(5-oxo-6,7,8,9-tetrahydro-5H-pyrido[3,2-c]azepine-3-yl)benzenesulfonamide] yielded an IC50 against TNAP of 100 to 1000 nM. The inhibition at 1 µM in the assay on saos-2 cells was at least 50%.
As for `COc1ccc(F)cc1S(=O)(=O)Nc1cnc2c(c1)C(=O)NCCC2` [Example 15, 5-fluoro-2-methoxy-N-(5-oxo-6,7,8,9-tetrahydro-5H-pyrido[3,2-c]azepine-3-yl)benzenesulfonamide], the IC50 on TNAP was 100 to 1000 nM. In addition, in the assay on saos-2 cells, the inhibition at 1 µM was at least 50%.
Compound `COc1ccc(OC)c(S(=O)(=O)Nc2cnc3c(c2)C(=O)NCCC3)c1` [Example 16, 2,5-dimethoxy-N-(5-oxo-6,7,8,9-tetrahydro-5H-pyrido[3,2-c]azepine-3-yl)benzenesulfonamide] had an IC50 on TNAP of 100 to 1000 nM. For the same compound, in the assay with saos-2 cells, the inhibition at 1 µM was at least 50%.
Compound `O=C1NCCCc2ncc(NS(=O)(=O)c3cc(Br)cc4c3OCC4)cc21` [Example 17, 5-bromo-N-(5-oxo-6,7,8,9-tetrahydro-5H-pyrido[3,2-c]azepine-3-yl)-2,3-dihydrobenzofuran-7-sulfonamide] returned an IC50 on TNAP of at least 1000 nM. Also, the inhibition at 1 µM in the assay on saos-2 cells is below 0%.
As to `O=C1NCc2ncc(NS(=O)(=O)c3cccc4c3OCC4)cc21` [Example 18, N-(5-oxo-6,7-dihydro-5H-pyrrolo[3,4-b]pyridine-3-yl)-2,3-dihydrobenzofuran-7-sulfonamide], the IC50 at TNAP was at least 1000 nM. The inhibition at 1 µM in the assay on saos-2 cells was below 0%.
`O=C1NCCc2ncc(NS(=O)(=O)c3cccc4c3OCC4)cc21` [Example 19, N-(5-oxo-5,6,7,8-tetrahydro-1,6-naphthyridine-3-yl)-2,3-dihydrobenzofuran-7-sulfonamide] registered an IC50 against TNAP of at least 1000 nM. Also, the inhibition at 1 µM in the assay with saos-2 cells was below 0%.
Take `O=C1NCc2ncc(NS(=O)(=O)c3cc(Cl)cc4c3OCC4)cc21` [Example 20, 5-chloro-N-(5-oxo-6,7-dihydro-5H-pyrrolo[3,4-b]pyridine-3-yl)-2,3-dihydrobenzofuran-7-sulfonamide]: the IC50 against TNAP is at least 1000 nM. The inhibition at 1 µM with saos-2 cells is below 0%.
`O=C1NCc2ncc(NS(=O)(=O)c3cc(F)cc4c3OCC4)cc21` [Example 21, 5-fluoro-N-(5-oxo-6,7-dihydro-5H-pyrrolo[3,4-b]pyridine-3-yl)-2,3-dihydrobenzofuran-7-sulfonamide] yielded a half-maximal inhibitory concentration (IC50) against TNAP of at least 1000 nM. In addition, in the assay on saos-2 cells, the inhibition at 1 µM is below 0%.
The like results for `O=C1NCCc2ncc(NS(=O)(=O)c3cc(Cl)cc4c3OCC4)cc21` [Example 22, 5-chloro-N-(5-oxo-5,6,7,8-tetrahydro-1,6-naphthyridine-3-yl)-2,3-dihydrobenzofuran-7-sulfonamide] were, in that order, 100 to 1000 nM and at least 50%.
With `O=C1NCCc2ncc(NS(=O)(=O)c3cc(F)cc4c3OCC4)cc21` [Example 23, 5-fluoro-N-(5-oxo-5,6,7,8-tetrahydro-1,6-naphthyridine-3-yl)-2,3-dihydrobenzofuran-7-sulfonamide], the IC50 at TNAP is at least 1000 nM. Besides, the inhibition at 1 µM in the assay on saos-2 cells is below 0%.
With `COc1ccc(Cl)cc1S(=O)(=O)Nc1cncc(C(N)=O)c1` [SBD-425, reference compound], the IC50 at TNAP is 100 to 1000 nM.

Values taken from patent publication EP4806894A1, “TNAP INHIBITORY COMPOUND AND USE THEREOF” (Rednvia Co., Ltd., priority 2023, dated 2025).
